Assays:
Type in all cases: cell-based
[1] = test system: Staphylococcus sp.; test: Agar-well inhibition zones of Lactobacillus culture supernatants; settings: 400 μl culture supernatant in agar well
Method: (§1) To test for their antimicrobial activity, all Lactobacillus isolates were grown anaerobically (to eliminate H2O2 production) in an MRS broth for 24 hours. The supernatants were collected and filter sterilized. Agar plates (Human Blood Tween agar for G.vaginalis, and Tryptic Soy agar with 5% sheep blood for other organisms) were inoculated with tested bacteria and 400 μl of each supernatant was added into the wells punched in the agar plates. The antimicrobial activity was determined by the size of the inhibition zones, similar to the disk method used for the determination of antibiotic activity. From our collection of clinical lactobacilli strains, we selected the strain identified as L. rhamnosus 160 since its extracellular product was characterized as having the highest antimicrobial activity, as shown in Table 1.

[2] = test system: E. coli; test: as above; settings: 400 μl culture supernatant in agar well
Method: as §1

[3] = test system: Group B Streptococci; test: as above; settings: 400 μl culture supernatant in agar well
Method: as §1

[4] = test system: G. vaginalis ATCC 14018; test: as above; settings: 400 μl culture supernatant in agar well
Method: as §1

[5] = test system: clinical isolates of G. vaginalis; test: Antibiotic resistance of clinical isolates
Excerpt: The ability of G. vaginalis to induce HIV expression in vitro was investigated in chronically infected U1 cells by measuring HIV p24 antigen concentration. […] Moreover, we have also determined that clinical isolates of G. vaginalis are often resistant to metronidazol (73%), and clindamycin (38%), two drugs of choice for treatment of BV. […] Thus, the major BV-associated pathogens are able to increase sensitivity of human cells to HIV.

Row | SMILES | Zone of inhibition [1] [mm] | Zone of inhibition [2] [mm] | Zone of inhibition [3] [mm] | Zone of inhibition [4] [mm] | Share of clinical isolates of G. vaginalis resistant [5] [%]
1 | CC(O)C(=O)O (stereo not drawn) [Lactic acid] | 1.5 | 1.5 | 1.5 | 1.5 | –
2 | CCC[C@@H]1C[C@@H](C(=O)N[C@@H]([C@H]2O[C@H](SC)[C@H](O)[C@@H](O)[C@H]2O)[C@H](C)Cl)N(C)C1 [clindamycin] | – | – | – | – | 38
3 | Cc1ncc([N+](=O)[O-])n1CCO [metronidazol] | – | – | – | – | 73

— patent US20090028839A1, “Compositions and methods for the prophylaxis and treatment of vaginal infections” (priority 2004, published 2009)
